Reference: a compilation of properties of binary mixtures (doi:10.1016/j.fluid.2021.113175)

Assay: xn = mol fraction of the nth substance listed
Details: 100 kPa

CC[N+]1(C)CCCC1.COP(=O)([O-])OC + CCO
viscosity [mPa·s]
Details | 293.15 K | 298.15 K | 303.15 K | 308.15 K | 313.15 K | 318.15 K | 323.15 K | 328.15 K | 333.15 K | 338.15 K
x1 = 0.0534 | – | 2.03 | 1.84 | 1.7 | 1.59 | 1.47 | – | 1.27 | 1.18 | –
x1 = 0.1054 | 3.4 | 3.06 | 2.75 | 2.51 | 2.31 | – | 1.96 | – | 1.71 | 1.6
x1 = 0.1535 | – | – | – | 3.68 | 3.33 | 3.06 | – | 2.61 | 2.42 | 2.23
x1 = 0.2015 | 6.75 | 6.07 | 5.35 | 4.78 | 4.33 | 3.97 | – | – | – | 2.8
x1 = 0.306 | 13.5 | – | 10.16 | 8.72 | 7.62 | 6.71 | 6.04 | 5.41 | 4.85 | 4.4
x1 = 0.4029 | 23.1 | 19.4 | 16.43 | 13.96 | 11.88 | 10.18 | 8.85 | 7.81 | 6.85 | 6
x1 = 0.5052 | 37.5 | 30.3 | 24.7 | – | 17.4 | 14.83 | 12.49 | 10.82 | 9.31 | 8
x1 = 0.6022 | 57 | 45.9 | 36.3 | 29.9 | 24.6 | 20.4 | 17.4 | – | 12.65 | 10.78
x1 = 0.6938 | 83.2 | 64.5 | 50.1 | – | 32.4 | 27 | – | 19 | 16.05 | 13.13
x1 = 0.8049 | 120.2 | 91.1 | 70 | 54.9 | 44 | 35.6 | – | – | 20.3 | 16.7
x1 = 0.9073 | 171 | 127.5 | 94.7 | 73.8 | 57.5 | 46.3 | 38 | 31 | 24.5 | –
x1 = 1 | 228 | 169 | – | – | 72.8 | 56.4 | 45.1 | 36.6 | 29.8 | –

COP(=O)([O-])OC.C[N+]1(CCO)CCCC1 + CCO
viscosity [mPa·s]
Details | 293.15 K | 298.15 K | 303.15 K | 308.15 K | 313.15 K | 318.15 K | 323.15 K | 328.15 K | 333.15 K | 338.15 K
x1 = 0.0561 | 2.69 | 2.27 | – | – | 1.54 | 1.33 | 1.17 | 1.04 | 0.92 | 0.82
x1 = 0.1077 | – | 4.39 | 3.88 | – | 3.23 | 2.94 | 2.69 | 2.47 | 2.28 | 2.1
x1 = 0.1523 | 7.31 | 6.71 | 6.24 | – | 5.31 | 4.98 | 4.66 | 4.37 | 4.09 | 3.85
x1 = 0.2079 | – | 10.91 | – | 8.65 | 7.87 | – | 6.44 | – | 5.33 | 4.93
x1 = 0.2537 | 19.2 | 16.9 | 14.81 | 13.08 | 11.56 | – | 9.55 | 8.62 | 8 | 7.27
x1 = 0.3084 | – | 27.7 | – | – | 18.5 | 16.22 | 14.35 | – | 11.68 | 10.55
x1 = 0.4033 | – | 48.5 | 40.2 | 34.3 | 30 | – | 22.9 | 20.3 | – | –
x1 = 0.5077 | – | 98.2 | – | 64.3 | 53.4 | – | – | 33.1 | 28 | –
x1 = 0.6042 | 220 | 174 | 133.8 | 108.1 | 87.6 | 72.1 | – | – | 42 | –
x1 = 0.7053 | – | – | 219 | 167 | 128.5 | 102.3 | 82.6 | 66.1 | – | 43.3
x1 = 0.8055 | 670 | – | 346 | 257 | 196 | 152.8 | 120.7 | 95 | 76.3 | –
x1 = 0.9053 | 1030 | 722 | 512 | 374 | – | 212 | 163 | 128.6 | 102.4 | 80.5
x1 = 1 | 1452 | 981 | 687 | 496 | 366 | – | 210 | 162 | 127.5 | 96.7

CCO + CC[N+]1(C)CCCC1.COP(=O)([O-])OC
x2 = 0
Details | viscosity [mPa·s]
293.15 K | 1.19
298.15 K | 1.08
303.15 K | 0.98
313.15 K | 0.82
323.15 K | 0.69
338.15 K | 0.54

CCO + COP(=O)([O-])OC.C[N+]1(CCO)CCCC1
x2 = 0
Details | viscosity [mPa·s]
293.15 K | 1.19
303.15 K | 0.98
308.15 K | 0.9
313.15 K | 0.82
318.15 K | 0.75
323.15 K | 0.69
328.15 K | 0.63
333.15 K | 0.58
338.15 K | 0.54
